Assay results reported in ChEMBL document CHEMBL5614459, “Conformationally Constrained Isoquinolinones as Orally Efficacious Hepatitis B Capsid Assembly Modulators” (ACS Med Chem Lett, 2024).
Active and inactive are the calls of the source. No cut-off for these calls is given here.

How the values were obtained:
Hepatitis B virus [1] = experiment: Antiviral activity against Hepatitis B virus genotype D infected in HepDE19 cells assessed as inhibition of viral replication by measuring decrease in intracellular rcDNA level by bDNA assay; format: functional, organism-based
[2] = Cytotoxicity against human HepDE19 cells by CellTiter-Glo assay; format: toxicity, cell-based
[3] = Selectivity index, ratio of CC50 for cytotoxicity against human HepDE19 cells to EC50 for antiviral activity against Hepatitis B virus genotype D infected in HepDE19 cells; format: toxicity, cell-based; details: read-out: Ratio CC50/EC50
[4] = Intrinsic clearance in mouse liver microsomes; format: ADME, Microsome; details: read-out: CLH
[5] = Intrinsic clearance in human liver microsomes; format: ADME, Microsome; details: read-out: CLH
[6] = target: Core antigen (Hepatitis B virus) (UniProt Q03732); experiment: Binding affinity to Hepatitis B virus core protein assessed as inhibition of capsid assembly by measuring induction of empty capsid formation; details: filed as modulator
[7] = target: Core antigen (Hepatitis B virus) (UniProt Q03732); experiment: Binding affinity to Hepatitis B virus core protein assessed as inhibition of capsid assembly by measuring inhibition of pgRNA-encapsidation; details: filed as modulator
[8] = Half life in CD-1 mouse at 10 mg/kg, po; format: ADME, organism-based; details: in vivo
[9] = Cmax in CD-1 mouse at 10 mg/kg, po; format: ADME, organism-based; details: in vivo
[10] = AUC(last) in CD-1 mouse at 10 mg/kg, po; format: ADME, organism-based; details: in vivo
[11] = Drug uptake in CD-1 mouse liver at 10 mg/kg, po or 2 mg/kg, iv measured after 24 hrs; format: ADME, organism-based; details: read-out: Drug uptake
Hepatitis B virus [12] = experiment: Anti-viral activity against Hepatitis B virus infected in mouse assessed as log10 reduction of HBV DNA levels in serum at 3 mg/kg, po qd for 7 days; format: functional; details: time 7 day
Hepatitis B virus [13] = experiment: Anti-viral activity against Hepatitis B virus infected in mouse assessed as log10 reduction of HBV DNA levels in serum at 0.3 mg/kg, po qd for 7 days; format: functional; details: time 7 day
Hepatitis B virus [14] = experiment: Anti-viral activity against Hepatitis B virus infected in mouse assessed as log10 reduction of HBV DNA levels in serum at 1 mg/kg, po qd for 7 days; format: functional; details: time 7 day
Hepatitis B virus [15] = experiment: Antiviral activity against Hepatitis B virus genotype D infected in HepG2-hNTCP-C4 cells assessed as inhibition of cccDNA formation by de novo infection assay; format: functional, organism-based
Hepatitis B virus [16] = experiment: Antiviral activity against Hepatitis B virus Genotype A (NCBI AF537372); format: functional, organism-based
Hepatitis B virus [17] = experiment: Antiviral activity against Hepatitis B virus Genotype B (NCBI GQ205440); format: functional, organism-based
Hepatitis B virus [18] = experiment: Antiviral activity against Hepatitis B virus Genotype B (NCBI KU964112); format: functional, organism-based
Hepatitis B virus [19] = experiment: Antiviral activity against Hepatitis B virus Genotype C (NCBI AB198079); format: functional, organism-based; details: genotype C (NCBI […])
Hepatitis B virus [20] = experiment: Antiviral activity against Hepatitis B virus Genotype D (NCBI U95551); format: functional, organism-based
Hepatitis B virus [21] = experiment: Antiviral activity against Hepatitis B virus Genotype E (NCBI HE974380); format: functional, organism-based
Hepatitis B virus [22] = experiment: Antiviral activity against Hepatitis B virus Genotype E (NCBI AB091255); format: functional, organism-based
Hepatitis B virus [23] = experiment: Antiviral activity against Hepatitis B virus Genotype F (NCBI HE974369); format: functional, organism-based
Hepatitis B virus [24] = experiment: Antiviral activity against Hepatitis B virus Genotype H (NCBI AB064315); format: functional, organism-based
Hepatitis B virus [25] = experiment: Antiviral activity against Hepatitis B virus Genotype H (NCBI AB179747); format: functional, organism-based
Hepatitis B virus [26] = experiment: Antiviral activity against Hepatitis B virus genotype D harboring core protein-I105T mutant; format: functional, organism-based
Hepatitis B virus [27] = experiment: Antiviral activity against Hepatitis B virus genotype D harboring core protein-T33N mutant; format: functional, organism-based
[28] = Hepatitis B virus, genotype D, HepDE19

Chain of Core antigen (Hepatitis B virus) (Q03732 as listed by the source): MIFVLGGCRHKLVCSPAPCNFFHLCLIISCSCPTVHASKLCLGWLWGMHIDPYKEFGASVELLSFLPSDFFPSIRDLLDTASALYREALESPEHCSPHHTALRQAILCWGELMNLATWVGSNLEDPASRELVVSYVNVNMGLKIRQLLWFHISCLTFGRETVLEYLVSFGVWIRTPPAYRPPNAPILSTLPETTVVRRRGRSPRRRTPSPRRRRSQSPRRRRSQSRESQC

`CN(C(=O)Nc1ccc(F)c(Cl)c1)C1CCCc2[nH]c(=O)c3ccccc3c21` (stereo in doubt; 2b) gave an EC50 (Hepatitis B virus [1]; hepde19) of 45 nM.

`CN(C(=O)Nc1ccccc1)[C@@H]1COCc2[nH]c(=O)c3cc(F)c(F)cc3c21` gave an EC50 (Hepatitis B virus [1]; [28]) of 33 nM, a CC50 [2] greater than 10000 nM and a selectivity ratio [3] greater than 1500.

For `CN(C(=O)Nc1ccc(F)c(Cl)c1)C1CCCc2[nH]c(=O)c3ccccc3c21` (racemic), the EC50 (Hepatitis B virus [1]; hepde19) was 84 nM, the CC50 [2] was greater than 10000 nM and the selectivity ratio [3] was greater than 1500.

In the case of `CN(C(=O)c1cc2cc(F)ccc2[nH]1)[C@@H]1COCc2[nH]c(=O)c3cc(F)c(F)cc3c21`, the EC50 (Hepatitis B virus [1]; [28]) is reported as 4 nM, the CC50 [2] is reported as greater than 10000 nM and the selectivity ratio [3] is reported as greater than 1500. For the same compound, the microsomal CLint [4] was 48 µL/min/mg and the microsomal CLint [5] was 95 µL/min/mg.

Compound `CN1Cc2[nH]c(=O)c3cc(F)c(F)cc3c2[C@H](N(C)C(=O)Nc2ccc(F)c(Cl)c2)C1` has an EC50 (Hepatitis B virus [1]; [28]) of 180 nM, a CC50 [2] greater than 10000 nM and a selectivity ratio [3] greater than 1500.

For `CN(C(=O)c1cc2cc(F)c(F)cc2[nH]1)[C@@H]1COCc2[nH]c(=O)c3cc(F)c(F)cc3c21`, the Activity [6] was “Active”, the Activity [7] was “Active” and the EC50 (Hepatitis B virus [1]; [28]) was 5 nM. For the same compound, the CC50 [2] was greater than 10000 nM, the selectivity ratio [3] was greater than 1500 and the microsomal CLint [4] was 25 µL/min/mg. It also gave a microsomal CLint [5] of 45 µL/min/mg, a half-life [8] of 10.7 h and a Cmax [9] of 2140 ng/mL. The AUC(0-t) [10] was 31800 ng·h/mL, the concentration at 24 h [11] was 4730 ng/g and the “log(activity)” value (Hepatitis B virus [12]) was 2.86. For the same compound, the “log(activity)” value (Hepatitis B virus [13]) was 1.48, the “log(activity)” value (Hepatitis B virus [14]) was 2.92 and the EC50 (Hepatitis B virus [15]) was 26 nM. It also gave an EC50 (Hepatitis B virus [16]) of 1 nM, an EC50 (Hepatitis B virus [17]) of 1 nM and an EC50 (Hepatitis B virus [18]) of 1 nM. The EC50 (Hepatitis B virus [19]) was 1 nM, the EC50 (Hepatitis B virus [20]) was 1 nM and the EC50 (Hepatitis B virus [21]) was 13 nM. For the same compound, the EC50 (Hepatitis B virus [22]) was 1 nM, the EC50 (Hepatitis B virus [23]) was 1 nM and the EC50 (Hepatitis B virus [24]) was 1 nM. It also gave an EC50 (Hepatitis B virus [25]) of 1 nM, an EC50 (Hepatitis B virus [26]) of 6 nM and an EC50 (Hepatitis B virus [27]) of 63 nM.

`CN(C(=O)Nc1ccc(F)c(Cl)c1)C1CCCc2[nH]c(=O)c3cc(F)c(F)cc3c21` (racemic) gave an EC50 (Hepatitis B virus [1]; hepde19) of 19 nM and a CC50 [2] greater than 10000 nM.

`CC(C)CN(C(=O)Nc1ccc(F)c(Cl)c1)C1CCCc2[nH]c(=O)c3ccccc3c21` (racemic) showed an EC50 (Hepatitis B virus [1]; [28]) of 470 nM, a CC50 [2] greater than 10000 nM and a selectivity ratio [3] greater than 1500.

For `CN(C(=O)Nc1ccc(F)c(Cl)c1)C1CCCc2[nH]c(=O)c3cc(F)c(F)cc3c21` (stereo in doubt), the EC50 (Hepatitis B virus [1]; hepde19) was 1030 nM.

`CN(C(=O)Nc1ccc(F)c(Cl)c1)C1CCc2[nH]c(=O)c3ccccc3c21` (racemic) gave an EC50 (Hepatitis B virus [1]; [28]) of 87 nM, a CC50 [2] greater than 10000 nM and a selectivity ratio [3] greater than 1500.

For `CN(C(=O)Nc1ccc(F)c(Cl)c1)[C@@H]1CCc2[nH]c(=O)c3ccccc3c21`, the EC50 (Hepatitis B virus [1]; [28]) was 45 nM, the CC50 [2] was greater than 10000 nM and the selectivity ratio [3] was greater than 1500.

For `CN(C(=O)c1cc2ccc(F)cc2[nH]1)[C@@H]1COCc2[nH]c(=O)c3cc(F)c(F)cc3c21`, the EC50 (Hepatitis B virus [1]; [28]) was 9 nM, the CC50 [2] was greater than 10000 nM and the selectivity ratio [3] was greater than 1500. For the same compound, the microsomal CLint [4] was 44 µL/min/mg and the microsomal CLint [5] was 53 µL/min/mg.

Compound `CN(C(=O)Nc1ccc(F)c(Cl)c1)[C@@H]1CSCc2[nH]c(=O)c3cc(F)c(F)cc3c21` has an EC50 (Hepatitis B virus [1]; [28]) of 21 nM, a CC50 [2] greater than 10000 nM and a selectivity ratio [3] greater than 1500. For the same compound, the microsomal CLint [4] was 112 µL/min/mg and the microsomal CLint [5] was 216 µL/min/mg.

`CN(C(=O)Nc1ccc(F)c(Cl)c1)[C@@H]1CN(CCO)Cc2[nH]c(=O)c3cc(F)c(F)cc3c21` gave an EC50 (Hepatitis B virus [1]; [28]) of 1360 nM, a CC50 [2] greater than 10000 nM and a selectivity ratio [3] greater than 1500.

`CN(C(=O)Nc1ccc(F)c(Cl)c1)[C@@H]1CNCc2[nH]c(=O)c3cc(F)c(F)cc3c21` gave an EC50 (Hepatitis B virus [1]; [28]) of 9 nM, a CC50 [2] greater than 10000 nM and a selectivity ratio [3] greater than 1500. For the same compound, the microsomal CLint [4] was 23 µL/min/mg and the microsomal CLint [5] was 86 µL/min/mg.
